One data set has as its target T1, CYP11A1 (Homo sapiens, UniProt P05108).
T1 construct: host or cells: NCI-H295R
T1 sequence (P05108 40-521): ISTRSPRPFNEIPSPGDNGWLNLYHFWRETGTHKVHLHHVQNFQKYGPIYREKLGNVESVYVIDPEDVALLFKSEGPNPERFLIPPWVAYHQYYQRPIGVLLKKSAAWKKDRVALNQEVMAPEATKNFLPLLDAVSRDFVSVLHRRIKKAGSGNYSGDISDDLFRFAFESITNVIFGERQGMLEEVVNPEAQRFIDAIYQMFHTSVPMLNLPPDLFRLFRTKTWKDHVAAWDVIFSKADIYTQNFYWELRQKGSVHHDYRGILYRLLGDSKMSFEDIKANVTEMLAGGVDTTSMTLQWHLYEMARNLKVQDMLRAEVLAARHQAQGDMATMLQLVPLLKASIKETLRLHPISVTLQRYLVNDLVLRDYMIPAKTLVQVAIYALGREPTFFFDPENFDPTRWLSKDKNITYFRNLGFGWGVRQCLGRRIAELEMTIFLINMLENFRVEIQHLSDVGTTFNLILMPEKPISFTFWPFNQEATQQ
Put plainly: NCI-H295R cellular pregnenolone biosynthesis inhibition assay (ELISA method). It counts as cell-based. To be noted: NCI-H295R cells, 3 days incubation, pregnenolone in cell supernatant by ELISA; read-out: IC50. The method in brief: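 NCI-H295R adrenocortical cells (5,000/well) treated 3 days at 37°C with compounds from 10µM top, 3-fold 10-point series, 0.1% DMSO. Pregnenolone in 5×-diluted supernatant measured by competitive ELISA (A450). Inhibition normalised to 1µM ODM-208 (100%) and DMSO (0%); IC50 by four-parameter fit.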
(In general: ELISA stands for enzyme-linked immunosorbent assay.)

Data set [1] can be described thus: PK study, intravenous and oral administration, plasma LC-MS/MS. To be noted: both sexes, 5 mg/kg, oral administration of 5 mpk, species not given (ICR mice or SD Rat); for bioavailability: read-out: bioavailability (F); for half-life: read-out: half-life (t1/2) (converted). The class given is in vivo. As for the experimental part: ICR mice (male/female, total 6 animals) were assigned to two groups for oral administration and intravenous administration, respectively, with 3 mice in each group. Before administration, the animals were fasted for 10-14 hours, with water available ad lib.
SD Rat (male/female, total 6 animals) were assigned to two groups for oral administration and intravenous administration, respectively, with 3 mice in each group. Before administration, the animals were fasted for 10-14 hours, with water available ad lib.
The compounds to be tested were weighed out in accordance with intended dosage, formulated with vehicles (5% DMSO + 10% Solutol + 85% physiological saline) to dosage form at appropriate concentrations (administered intravenously and orally in rats or mice at a volume of 5 mL/kg and 10 mL/kg, respectively). The dosage form for intravenous injection is a clear solution, and the dosage form for oral administration is a clear solution or homogenous suspension.
Administration to animals was conducted through intravenous injection and oral gavage, and blood samples were collected at 0.033, 0.083, 0.25, 0.5, 1, 2, 4, 8, and 24 hours after intravenous injection, or at 0.083, 0.25, 0.5, 1, 2, 4, 6, 8, and 24 hours after oral administration. After centrifugation of whole blood samples at 4°C and 6,800g for 6 minutes, the upper layers of plasma were stored at -80°C refrigerator before analysis.
The DMSO stock solutions of the substance to be tested were diluted with methanol or acetonitrile solution to serial working solutions and added to blank plasma matrix to formulate samples for standard curve and quality control. An appropriate volume of plasma sample was added with appropriate fold of methanol or acetonitrile containing internal standards, according to response, for protein precipitation. After centrifugation of all samples at 4°C and 18,000g for 10 min, appropriate volumes of supernatant were taken for LC-MS/MS analysis.
Plasma drug concentration-time curves were plotted in accordance with tested concentrations, and pharmacokinetic parameters were calculated based on non-compartmental model using WinNonlin software, including half-life (T1/2), area under the drug concentration-time curve (AUC0-t), clearance rate (CL), steady-state distribution volume (Vss), bioavailability (F), etc.

In general, IC50 refers to the concentration needed to halve the response being measured. In general, AUC refers to concentration integrated over time. By Cmax is commonly meant the highest concentration seen after dosing. Broadly, the bioavailability is dose-corrected exposure relative to a reference, in per cent.

SMILES strings stand for the structures. A value given as a limit tells only on which side of the number the result lay.

With `Cn1c(CN2Cc3ccccc3C2)c(F)cc(C=CC2CCN(C(=O)CC#N)CC2)c1=O` [compound 112], the concentration for half-maximal inhibition (IC50) at CYP11A1 is under 100 nM. Also, in data set [1], the area under the curve (AUC) was over 1700 ng·h/mL, the Cmax is over 1000 ng/mL and the bioavailability was over 60%.
Regarding `COc1cc(CN2Cc3ccccc3C2)ccc1CCC1CCN(S(C)(=O)=O)CC1` [compound 53], the IC50 at CYP11A1 is under 100 nM. In data set [1], the AUC is over 1700 ng·h/mL and the half-life was over 3 h.
As to `Cn1c(CN2Cc3ccccc3C2)c(F)cc(CCC2CCN(S(C)(=O)=O)CC2)c1=O` [compound 72], on CYP11A1, the IC50 was under 100 nM. Besides, in data set [1], the AUC was over 1700 ng·h/mL, the bioavailability was over 60% and the half-life is over 3 h.

Source of the values: EP4775570A1, “CYP11A1 INHIBITOR, PREPARATION METHOD THEREFOR AND USE THEREOF” (Shenzhen Zhongge Biological Technology Co., Ltd., priority 2023, dated 2025).
